Reference: the supplement of paper PMC10627819

Columns and labels:
Test in all cases: fitness (endpoint OD595 vs no drug) (fraction); higher = more growth
S. aureus DSM 20231 = test system: S. aureus DSM 20231
In short: (§1)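 Plates with 384 wells were inoculated at OD595 0.01 using 30 µl of TSB, LB Lennox or CY, or 55 µl for S. pneumoniae. Incubation was at 37 °C, with OD595 measured every 30 min for 14 h. Fitness is the stationary-phase transition optical density over the robust mean of no-drug control wells, after first-reading background subtraction; it is capped at 1.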

B. subtilis 168 = test system: B. subtilis 168
In short: as §1

S. pneumoniae D39V = test system: S. pneumoniae D39V
In short: as §1

CN(C)[C@@H]1C(O)=C(C(N)=O)C(=O)[C@@]2(O)C(O)=C3C(=O)c4c(O)ccc(Cl)c4[C@@](C)(O)[C@H]3C[C@@H]12 [Chlortetracycline] + CCN(CC)CCOC(=O)c1ccc(N)cc1 [Procaine]
fitness, one replicate
Settings | partner 85.5 µg/mL | partner 171 µg/mL | partner 342 µg/mL
S. aureus DSM 20231, first compound 0.006 µg/mL | 0.713 | 0.8 | 0.737
S. pneumoniae D39V, first compound 0.012 µg/mL | 0.95 | 0.897 | 0.929
S. pneumoniae D39V, first compound 0.024 µg/mL | 0.921 | 0.835 | 0.86
S. pneumoniae D39V, first compound 0.048 µg/mL | 0.835 | 0.726 | 0.736

fitness
Settings | partner 85.5 µg/mL | partner 171 µg/mL | partner 342 µg/mL
B. subtilis 168, first compound 0.0475 µg/mL | 0.908 | 0.855 | 0.878
B. subtilis 168, first compound 0.095 µg/mL | 0.695 | 0.699 | 0.703
B. subtilis 168, first compound 0.19 µg/mL | – | 0.528 | –
S. aureus DSM 20231, first compound 0.012 µg/mL | 0.568 | 0.615 | 0.613
S. aureus DSM 20231, first compound 0.024 µg/mL | 0.23 | 0.2 | 0.2
S. aureus DSM 20231, first compound 0.048 µg/mL | 0.0791 | 0.058 | 0.0382
S. pneumoniae D39V, first compound 0.375 µg/mL | 0.0458 | 0.0259 | 0.0318
S. pneumoniae D39V, first compound 0.75 µg/mL | 0.055 | 0.0347 | 0.0395
S. pneumoniae D39V, first compound 1.5 µg/mL | 0.0277 | 0.0174 | 0.0396

CN(C)[C@@H]1C(O)=C(C(N)=O)C(=O)[C@@]2(O)C(O)=C3C(=O)c4c(O)ccc(Cl)c4[C@@](C)(O)[C@H]3C[C@@H]12 [Chlortetracycline] + CN1C2=CC=CC=C2N=C3C1=CC=CC3=O [Pyocyanin]
one replicate
Settings | fitness
S. aureus DSM 20231, first compound 0.006 µg/mL, partner 1.25 µg/mL | 0.748
S. aureus DSM 20231, first compound 0.006 µg/mL, partner 2.5 µg/mL | 0.692
S. aureus DSM 20231, first compound 0.006 µg/mL, partner 5 µg/mL | 0.602
S. pneumoniae D39V, first compound 0.012 µg/mL, partner 0.325 µg/mL | 0.893
S. pneumoniae D39V, first compound 0.012 µg/mL, partner 0.65 µg/mL | 0.958
S. pneumoniae D39V, first compound 0.024 µg/mL, partner 0.325 µg/mL | 0.932
S. pneumoniae D39V, first compound 0.024 µg/mL, partner 0.65 µg/mL | 0.885
S. pneumoniae D39V, first compound 0.048 µg/mL, partner 0.325 µg/mL | 0.858
S. pneumoniae D39V, first compound 0.048 µg/mL, partner 0.65 µg/mL | 0.868

fitness
Settings | partner 0.325 µg/mL | partner 0.65 µg/mL | partner 1.25 µg/mL | partner 1.3 µg/mL | partner 2.5 µg/mL | partner 5 µg/mL
B. subtilis 168, first compound 0.0475 µg/mL | – | – | 0.837 | – | 0.825 | 0.692
B. subtilis 168, first compound 0.095 µg/mL | – | – | 0.774 | – | 0.7 | 0.597
B. subtilis 168, first compound 0.19 µg/mL | – | – | 0.594 | – | 0.529 | 0.416
S. aureus DSM 20231, first compound 0.012 µg/mL | – | – | 0.487 | – | 0.43 | 0.359
S. aureus DSM 20231, first compound 0.024 µg/mL | – | – | 0.185 | – | 0.147 | 0.121
S. aureus DSM 20231, first compound 0.048 µg/mL | – | – | 0.0813 | – | 0.0826 | 0.0871
S. pneumoniae D39V, first compound 0.375 µg/mL | 0.0228 | 0.0497 | – | 0.031 | – | –
S. pneumoniae D39V, first compound 0.75 µg/mL | 0.0553 | 0.0813 | – | 0.104 | – | –
S. pneumoniae D39V, first compound 1.5 µg/mL | 0.0507 | 0.0698 | – | 0.0588 | – | –

CN(C)[C@@H]1C(O)=C(C(N)=O)C(=O)[C@@]2(O)C(O)=C3C(=O)c4c(O)ccc(Cl)c4[C@@](C)(O)[C@H]3C[C@@H]12 [Chlortetracycline] + CN(N=O)C(=O)N[C@@H](C=O)[C@@H](O)[C@H](O)[C@H](O)CO [Streptozotocin]
fitness, one replicate
Settings | partner 0.15 µg/mL | partner 0.3 µg/mL | partner 0.6 µg/mL | partner 1.2 µg/mL | partner 2.4 µg/mL | partner 4.8 µg/mL
S. aureus DSM 20231, first compound 0.006 µg/mL | 0.699 | 0.621 | 0.622 | – | – | –
S. pneumoniae D39V, first compound 0.012 µg/mL | – | – | – | 0.889 | 0.893 | 0.796
S. pneumoniae D39V, first compound 0.024 µg/mL | – | – | – | 0.858 | 0.798 | 0.659
S. pneumoniae D39V, first compound 0.048 µg/mL | – | – | – | 0.737 | 0.8 | 0.577

fitness
Settings | partner 0.15 µg/mL | partner 0.3 µg/mL | partner 0.6 µg/mL | partner 1.2 µg/mL | partner 2.4 µg/mL | partner 4.8 µg/mL
B. subtilis 168, first compound 0.0475 µg/mL | 0.901 | 0.934 | 0.956 | – | – | –
B. subtilis 168, first compound 0.095 µg/mL | 0.786 | 0.762 | 0.784 | – | – | –
B. subtilis 168, first compound 0.19 µg/mL | 0.533 | 0.547 | 0.556 | – | – | –
S. aureus DSM 20231, first compound 0.012 µg/mL | 0.503 | 0.532 | 0.507 | – | – | –
S. aureus DSM 20231, first compound 0.024 µg/mL | 0.227 | 0.232 | 0.189 | – | – | –
S. aureus DSM 20231, first compound 0.048 µg/mL | 0.0717 | 0.13 | 0.059 | – | – | –
S. pneumoniae D39V, first compound 0.375 µg/mL | – | – | – | 0.0355 | 0.0337 | 0.0486
S. pneumoniae D39V, first compound 0.75 µg/mL | – | – | – | 0.0646 | 0.0497 | 0.0485
S. pneumoniae D39V, first compound 1.5 µg/mL | – | – | – | 0.0765 | 0.0322 | 0.0617

CN(C)[C@@H]1C(O)=C(C(N)=O)C(=O)[C@@]2(O)C(O)=C3C(=O)c4c(O)ccc(Cl)c4[C@@](C)(O)[C@H]3C[C@@H]12 [Chlortetracycline] + CN[C@@H]1[C@H](O)[C@H](NC)[C@H]2O[C@@]3(O)C(=O)C[C@@H](C)O[C@H]3O[C@@H]2[C@H]1O [Spectinomycin]
fitness, one replicate
Settings | first compound 0.006 µg/mL | first compound 0.012 µg/mL | first compound 0.024 µg/mL | first compound 0.048 µg/mL
S. aureus DSM 20231, partner 4 µg/mL | 0.669 | – | – | –
S. aureus DSM 20231, partner 8 µg/mL | 0.707 | – | – | –
S. aureus DSM 20231, partner 16 µg/mL | 0.655 | – | – | –
S. aureus DSM 20231, partner 32 µg/mL | – | 0.298 | 0.058 | 0.0249
S. aureus DSM 20231, partner 64 µg/mL | – | 0.0229 | 0.0093 | 0.0056
S. pneumoniae D39V, partner 4 µg/mL | – | 0.901 | 0.859 | 0.795
S. pneumoniae D39V, partner 8 µg/mL | – | 0.853 | 0.859 | 0.78

fitness
Settings | partner 2 µg/mL | partner 4 µg/mL | partner 8 µg/mL | partner 16 µg/mL
B. subtilis 168, first compound 0.0475 µg/mL | 0.885 | 0.884 | 0.752 | –
B. subtilis 168, first compound 0.095 µg/mL | 0.803 | 0.806 | 0.691 | –
B. subtilis 168, first compound 0.19 µg/mL | 0.523 | 0.409 | 0.199 | –
S. aureus DSM 20231, first compound 0.012 µg/mL | – | 0.529 | – | 0.494
S. aureus DSM 20231, first compound 0.024 µg/mL | – | 0.203 | – | –
S. aureus DSM 20231, first compound 0.048 µg/mL | – | 0.137 | 0.0943 | 0.05
S. pneumoniae D39V, first compound 0.375 µg/mL | – | 0.0802 | 0.0586 | 0.0693
S. pneumoniae D39V, first compound 0.75 µg/mL | – | 0.0886 | 0.0941 | 0.0722
S. pneumoniae D39V, first compound 1.5 µg/mL | – | 0.0871 | 0.0754 | 0.0779

CN(C)[C@@H]1C(O)=C(C(N)=O)C(=O)[C@@]2(O)C(O)=C3C(=O)c4c(O)ccc(Cl)c4[C@@](C)(O)[C@H]3C[C@@H]12 [Chlortetracycline] + CN[C@H](CC(C)C)C(=O)N[C@H]1C(=O)N[C@@H](CC(N)=O)C(=O)N[C@H]2C(=O)N[C@H]3C(=O)N[C@H](C(=O)N[C@H](C(=O)O)c4cc(O)cc(O)c4-c4cc3ccc4O)[C@H](O)c3ccc(c(Cl)c3)Oc3cc2cc(c3O[C@@H]2O[C@H](CO)[C@@H](O)[C@H](O)[C@H]2O[C@H]2C[C@](C)(N)[C@H](O)[C@H](C)O2)Oc2ccc(cc2Cl)[C@H]1O [Vancomycin]
S. aureus DSM 20231, first compound 0.006 µg/mL, one replicate
Settings | fitness
partner 0.1875 µg/mL | 0.806
partner 0.375 µg/mL | 0.776
partner 0.75 µg/mL | 0.79

Settings | fitness
S. aureus DSM 20231, first compound 0.012 µg/mL, partner 0.1875 µg/mL | 0.541
S. aureus DSM 20231, first compound 0.012 µg/mL, partner 0.375 µg/mL | 0.499
S. aureus DSM 20231, first compound 0.012 µg/mL, partner 0.75 µg/mL | 0.548
S. aureus DSM 20231, first compound 0.024 µg/mL, partner 0.375 µg/mL | 0.28
S. aureus DSM 20231, first compound 0.048 µg/mL, partner 0.1875 µg/mL | 0.103
S. aureus DSM 20231, first compound 0.048 µg/mL, partner 0.375 µg/mL | 0.0854
S. aureus DSM 20231, first compound 0.048 µg/mL, partner 0.75 µg/mL | 0.0806
S. pneumoniae D39V, first compound 0.012 µg/mL, partner 0.03125 µg/mL | 0.883
S. pneumoniae D39V, first compound 0.012 µg/mL, partner 0.0625 µg/mL | 0.903
S. pneumoniae D39V, first compound 0.012 µg/mL, partner 0.125 µg/mL | 0.706
S. pneumoniae D39V, first compound 0.024 µg/mL, partner 0.03125 µg/mL | 0.832
S. pneumoniae D39V, first compound 0.024 µg/mL, partner 0.0625 µg/mL | 0.829
S. pneumoniae D39V, first compound 0.048 µg/mL, partner 0.03125 µg/mL | 0.734
S. pneumoniae D39V, first compound 0.048 µg/mL, partner 0.0625 µg/mL | 0.688
S. pneumoniae D39V, first compound 0.375 µg/mL, partner 0.125 µg/mL | 0.0536
S. pneumoniae D39V, first compound 0.375 µg/mL, partner 0.25 µg/mL | 0.0553
S. pneumoniae D39V, first compound 0.375 µg/mL, partner 0.5 µg/mL | 0.0628
S. pneumoniae D39V, first compound 0.75 µg/mL, partner 0.125 µg/mL | 0.0485
S. pneumoniae D39V, first compound 0.75 µg/mL, partner 0.25 µg/mL | 0.0618
S. pneumoniae D39V, first compound 0.75 µg/mL, partner 0.5 µg/mL | 0.0842
S. pneumoniae D39V, first compound 1.5 µg/mL, partner 0.125 µg/mL | 0.0391
S. pneumoniae D39V, first compound 1.5 µg/mL, partner 0.25 µg/mL | 0.0305
S. pneumoniae D39V, first compound 1.5 µg/mL, partner 0.5 µg/mL | 0.0442
